Measurements from patent publication US10421740B2, “Pesticidally active heterocyclic derivatives with sulphur containing substituents” (SYNGENTA PARTICIPATIONS AG, priority 2016, dated 2019).

Assays:
Assay type in all cases: in vivo
[1] = system: Spodoptera littoralis (Egyptian Cotton Leaf Worm); test: Activity against Spodoptera littoralis (Egyptian cotton leaf worm), cotton leaf disc spray; details: foliar, 72 h, application rate 200 ppm, cotton leaf discs, L1 larvae, 3 days after infestation
Protocol: Example B8: Activity Against Spodoptera littoralis (Egyptian Cotton Leaf Worm)
Cotton leaf discs were placed onto agar in 24-well microtiter plates and sprayed with aqueous test solutions prepared from 10'000 ppm DMSO stock solutions. After drying the leaf discs were infested with five L1 larvae. The samples were assessed for mortality, anti-feeding effect, and growth inhibition in comparison to untreated samples 3 days after infestation. Control of Spodoptera littoralis by a test sample is given when at least one of the categories mortality, anti-feedant effect, and growth inhibition is higher than the untreated sample.

[2] = system: Anopheles stephensi (Indian Malaria Mosquito); test: Activity against Anopheles stephensi (Indian malaria mosquito); details: 200 ppm in ethanol, dry deposit; adult females; after 48 h and/or 24 h
Protocol: Example B10: Activity Against Anopheles stephensi (Indian Malaria Mosquito)
Test solutions, at an application rate of 200 ppm in ethanol, were applied to 12 well tissue culture plates. Once the deposits were dry, five, two to five day old adult female Anopheles stephensi were added to each well, and sustained with a 10% sucrose solution in a cotton wool plug. Assessment of knockdown was made one hour after introduction, and mortality was assessed at 24 and 48 hours after introduction.

[3] = system: Myzus persicae (Green Peach Aphid); test: Activity against Myzus persicae (green peach aphid): systemic activity; details: 144 h, test rate 24 ppm, roots of pea seedlings in test solution, 6 days
Protocol: Example B4: Activity Against Myzus persicae (Green Peach Aphid): Systemic Activity
Roots of pea seedlings infested with an aphid population of mixed ages were placed directly into aqueous test solutions prepared from 10'000 DMSO stock solutions. The samples were assessed for mortality 6 days after placing seedlings into test solutions.

[4] = system: Diabrotica balteata (Corn Root Worm); test: Activity against Diabrotica balteata (corn root worm); details: 96 h, application rate 200 ppm, maize sprouts, L2 larvae, 4 days after infestation, read-out: effect in at least one of the two categories (mortality or growth inhibition)
Protocol: Example B2: Activity Against Diabrotica balteata (Corn Root Worm)
Maize sprouts placed onto an agar layer in 24-well microtiter plates were treated with aqueous test solutions prepared from 10'000 ppm DMSO stock solutions by spraying. After drying, the plates were infested with L2 larvae (6 to 10 per well). The samples were assessed for mortality and growth inhibition in comparison to untreated samples 4 days after infestation.

[5] = system: Plutella xylostella (Diamond Back Moth); test: Activity against Plutella xylostella (diamond back moth); details: 120 h, application rate 200 ppm, artificial diet, L2 larvae, 5 days after infestation, read-out: effect in at least one of the two categories (mortality or growth inhibition)
Protocol: Example B5: Activity Against Plutella xylostella (Diamond Back Moth)
24-well microtiter plates with artificial diet were treated with aqueous test solutions prepared from 10'000 ppm DMSO stock solutions by pipetting. After drying, the plates were infested with L2 larvae (10 to 15 per well). The samples were assessed for mortality and growth inhibition in comparison to untreated samples 5 days after infestation.

[6] = system: Myzus persicae (Green Peach Aphid); test: Activity against Myzus persicae (green peach aphid): feeding/contact activity; details: foliar, 144 h, application rate 200 ppm, sunflower leaf discs, aphid population of mixed ages, 6 days after infestation
Protocol: Example B3: Activity Against Myzus persicae (Green Peach Aphid): Feeding/Contact Activity
Sunflower leaf discs were placed onto agar in a 24-well microtiter plate and sprayed with aqueous test solutions prepared from 10'000 ppm DMSO stock solutions. After drying, the leaf discs were infested with an aphid population of mixed ages. The samples were assessed for mortality 6 days after infestation.

[7] = system: Spodoptera littoralis (Egyptian Cotton Leaf Worm); test: Activity against Spodoptera littoralis (Egyptian cotton leaf worm), uptake via lettuce roots; details: 144 h, test rate 12.5 ppm, lettuce grown on treated agar, eggs, 6 days after infestation, read-out: effect in at least one of the three categories (mortality, anti-feeding, or growth inhibition)
Excerpt: Example B6: Activity Against Spodoptera littoralis (Egyptian Cotton Leaf Worm)
Test compounds were applied by pipette from 10'000 ppm DMSO stock solutions into 24-well plates and mixed with agar. Lettuce seeds were placed onto the agar and the multi well plate was closed by another plate which contained also agar. After 7 days the compound was absorbed by the roots and the lettuce grew into the lid plate. The lettuce leaves were then cut off into the lid plate. Spodoptera eggs were pipetted through a plastic stencil onto a humid gel blotting paper and the lid plate was closed with it. The samples were assessed for mortality, anti-feedant effect and growth inhibition in comparison to untreated samples 6 days after infestation.

[8] = system: Bemisia tabaci (Cotton White Fly); test: Activity against Bemisia tabaci (cotton white fly): feeding/contact activity; details: foliar, 144 h, application rate 200 ppm, cotton leaf discs, adult white flies, 6 days after incubation
Protocol: Example B1: Activity Against Bemisia tabaci (Cotton White Fly): Feeding/Contact Activity
Cotton leaf discs were placed on agar in 24-well microtiter plates and sprayed with aqueous test solutions prepared from 10'000 ppm DMSO stock solutions. After drying the leaf discs were infested with adult white flies. The samples were checked for mortality 6 days after incubation.

[9] = system: Euschistus heros (Neotropical Brown Stink Bug); test: Activity against Euschistus heros (neotropical brown stink bug); details: 120 h, application rate 200 ppm, soybean leaves, N2 nymphs, 5 days after infestation, read-out: effect in at least one of the two categories (mortality or growth inhibition)
Protocol: Example B9: Activity Against Euschistus heros (Neotropical Brown Stink Bug)
Soybean leaves on agar in 24-well microtiter plates were sprayed with aqueous test solutions prepared from 10'000 ppm DMSO stock solutions. After drying the leaves were infested with N2 nymphs. The samples were assessed for mortality and growth inhibition in comparison to untreated samples 5 days after infestation.

Structure (SMILES)	percent control (mortality, anti-feedant effect or growth inhibition) at 200 ppm [1] [%]	control of Anopheles stephensi [2]	mortality at 24 ppm [3] [%]	percent effect (mortality or growth inhibition) at 200 ppm [4] [%]	percent control (mortality or growth inhibition) at 200 ppm [5] [%]	mortality at 200 ppm [6] [%]	percent with effect (mortality, anti-feeding or growth inhibition) at 12.5 ppm [7] [%]	mortality at 200 ppm [8] [%]	effect (mortality or growth inhibition) at 200 ppm [9] [%]
CCS(=O)(=O)c1cc2c(cc1-c1nnc(-c3cc(C(F)(F)F)ccn3)n1C)nc(C(F)(F)F)n2C [Compound A2, 6-ethylsulfonyl-1-methyl-5-[4-methyl-5-[4-(trifluoromethyl)-2-pyridyl]-1,2,4-triazol-3-yl]-2-(trifluoromethyl)benzimidazole]	≥ 80	at least 80%	≥ 80	≥ 80	≥ 80	≥ 80	≥ 80	≥ 80	–
CCS(=O)(=O)c1cc2sc(C(F)(F)F)nc2cc1-c1nnc(-c2cc(C(F)(F)F)ccn2)n1C [Compound A8, 6-ethylsulfonyl-5-[4-methyl-5-[4-(trifluoromethyl)-2-pyridyl]-1,2,4-triazol-3-yl]-2-(trifluoromethyl)-1,3-benzothiazole]	≥ 80	–	–	≥ 80	≥ 80	≥ 80	≥ 80	≥ 80	≥ 80
